{"source": "patent US20140205631A1", "about": "“Stimulation of vaccination by angiotensin peptides” (University of Southern California, priority 2013, published 2014)", "key": {"[1]": {"tested_on": "mucosal SIgA antibody production", "test": "Local (mucosal) secretory IgA immune response after vaccination of cats, general statements", "assay_type": "in vivo", "description": "(§1) Animals: Eleven (11) female outbred cats>24 weeks old that were free of FIV, feline leukemia virus (FeLV) and feline infectious peritonitis virus were employed. The animals were restrained for the application of test articles to mucous membranes and collection of blood and mucosal secretions. Sedation, if necessary, was induced by subcutaneous administration of ketamine hydrochloride (22 mg/kg) and acepromazine maleate (0.1 mg/kg). Euthanasia was accomplished with a lethal overdose of barbiturates. All activities were approved by the Institutional Animal Care and Use Committee and supervised by veterinary staff.\n(§2) Vaccine Preparation: Fel-O-Vax FIV (Fort Dodge Animal Health, Fort Dodge, Iowa) and A(1-7) was combined in a constant volume of 2% hydroxyethyl cellulose (2% HEC). The range of concentrations of A(1-7) ranged from 0 to 10 mg/mL with a constant 0.33 mL of Fel-O-Vax FIV suspended in each mL of the gel applied for vaccination purposes. Two control animals received intramuscular Fel-O-Vax FIV at baseline, week 3 and week 5. […]\n(§3) The local immune response in mucosal secretions was evaluated against the homologous FIV-p24 antigen (Cell Biolabs, Inc, San Diego, Calif.) or the heterologous HIV-gp120 antigen (ImmunoDiagnostics, Inc, Woburn, Mass.). […] Plates were read at 450 nm."}, "HIV-gp120 antigen [2]": {"tested_on": "HIV-gp120 antigen", "test": "Rectal secretion SIgA antibody titers (ELISA) after vaccination of cats", "assay_type": "in vivo, human immunodeficiency virus (HIV)", "conditions": "parenteral vaccination or topical application of Fel-O-Vax FIV with A(1-7)", "description": "as §1, §2, §3"}, "FIV-p24": {"tested_on": "FIV-p24", "test": "Oral secretion IgG antibody titers (ELISA) after vaccination of cats", "assay_type": "in vivo, feline immunodeficiency virus (FIV)", "conditions": "Week 8, lowest dilution 1:4, elution factor 4-fold", "description": "as §1\n(§4) Vaccine Preparation: Fel-O-Vax FIV (Fort Dodge Animal Health, Fort Dodge, Iowa) and A(1-7) was combined in a constant volume of 2% hydroxyethyl cellulose (2% HEC). The range of concentrations of A(1-7) ranged from 0 to 10 mg/mL with a constant 0.33 mL of Fel-O-Vax FIV suspended in each mL of the gel applied for vaccination purposes. Two control animals received intramuscular Fel-O-Vax FIV at baseline, week 3 and week 5. One control animal had mucosal vaccination with Fel-O-Vax alone suspended in the 2% HEC without A(1-7) and one control animal received intramuscular Fel-O-Vax FIV with 0.3 mg/kg of A(1-7) at baseline, week 3 and week 5.\n(§5) Delivery of angiotensin(1-7) and FIV vaccine to mucosal surfaces: 2% HEC, a viscous gel, was used as the vehicle for the topical delivery of angiotensin(1-7) and FIV vaccine. The topical vaccine was applied to the mucosal surface weekly for 6 consecutive weeks. 1.0 mL was applied to the muzzle for oral mucosal vaccination and 1.0 mL and 0.2 mL was instilled in the rectal and vaginal vaults, respectively for mucosal vaccination at these sites.\n(§6) Measurement of Local Immune Response: The Weck-Cel Surgical Spear (Windsor Biomedical, Newton, N.H.) was used to obtain secretions. Once inserted, the sponge is allowed to remain in place for 5 minutes. The secretions were extracted by centrifugation with 300 μL of a buffer solution. The buffer solution is prepared by mixing 50 μL of 100× protease inhibitor cocktail and 250 μL of 10% Igepal (Sigma, St Louis, Mo., U.S.A.) with 4.7 ml of phosphate-buffered saline (PBS) containing 0.25% bovine serum albumin (BSA, Fraction V; Sigma). The 100× protease inhibitor cocktail contains 100 μg/mL aprotinin, 500 μg/mL leupeptin, 100 μg/mL bestatin (all Sigma), and 50 μg/mL 4-(2-Aminoethyl)-benzenesulfonyl fluoride hydrochloride (Roche Applied Sciences, U.S.A.) in phosphate buffered saline.\nas §3"}, "HIV-gp120 antigen [3]": {"tested_on": "HIV-gp120 antigen", "test": "Vaginal secretion IgG antibody titers (ELISA) after vaccination of cats", "assay_type": "in vivo, human immunodeficiency virus (HIV)", "conditions": "for IgG Anti-HIV gp120: vaginal, Week 8, lowest dilution 1:4, elution factor 300-fold", "description": "as §1, §4, §5, §6\n(§7) The local immune response in mucosal secretions was evaluated against the homologous FIV-p24 antigen (Cell Biolabs, Inc, San Diego, Calif.) or the heterologous HIV-gp120 antigen (ImmunoDiagnostics, Inc, Woburn, Mass.). Plates were prepared with 50 ng/mL FIV-p24 antigen or with 500 ng/mL HIV-gp120 antigen (Bachem Americans, Inc, Torrance, Calif.) incubated over night at 4° C., washed and the target sample added and incubated overnight again at 4° C. The plates were washed and the indicator goat anti-feline IgG (Accurate Chemical & Scientific Corp., Westbury, N.Y., working titer 1:10,000) or goat anti-feline IgA (Accurate Chemical & Scientific Corp., Westbury, N.Y., working titer 1:1,000) added and incubated for 24 hours at 4° C. Following a final wash, substrate solution was added. The stop solution was added after 15 minutes for the IgG reaction and after 30 minutes for the IgA reaction. Plates were read at 450 nm."}, "HIV-gp120 antigen [4]": {"tested_on": "HIV-gp120 antigen", "test": "Oral secretion SIgA antibody titers (ELISA) after vaccination of cats", "assay_type": "in vivo, human immunodeficiency virus (HIV)", "conditions": "for SIgA anti-HIV-gp120: oral, Week 8, lowest dilution 1:4, elution factor 4-fold", "description": "as §1, §4, §5, §6, §7"}, "FIV-p24 antigen": {"tested_on": "FIV-p24 antigen", "test": "Oral secretion SIgA antibody titers (ELISA) after vaccination of cats", "assay_type": "in vivo, feline immunodeficiency virus (FIV)", "description": "as §1, §4, §5, §6, §7"}, "[5]": {"conditions": "topical Fel-O-Vax FIV + 0.1 A(1-7) in 2% HEC"}, "[6]": {"conditions": "topical Fel-O-Vax FIV + 10.0 A(1-7) in 2% HEC"}, "[7]": {"conditions": "topical Fel-O-Vax FIV + 7.5 A(1-7) in 2% HEC"}}, "data": [{"substance": "Asp-Arg-Val-Tyr-Ile-His-Pro (DRVYIHP) [A(1-7)]", "values": [{"measurement": "local secretory IgA immune responses", "setting": "[1]; angiotensin (1-7) co-administered with killed FIV (Fel-O-Vax FIV) vaccine", "value": "dramatic increase"}, {"measurement": "induction of SIgA antibody production at the mucosal surface", "setting": "[1]; following A(1-7)+FIV immunization, two month period of observation", "value": "sustained"}, {"measurement": "SIgA anti-HIV-gp120 (rectal, Table 4)", "setting": "HIV-gp120 antigen [2]", "value": "High levels"}, {"measurement": "IgG anti-FIV-p24", "setting": "FIV-p24; [5]", "value": "Negative"}, {"measurement": "IgG anti-FIV-p24", "setting": "FIV-p24; topical Fel-O-Vax FIV + 0.2 A(1-7) in 2% HEC", "value": "Negative"}, {"measurement": "IgG anti-FIV-p24", "setting": "FIV-p24; topical Fel-O-Vax FIV + 0.3 A(1-7) in 2% HEC", "value": "Negative"}, {"measurement": "IgG anti-FIV-p24", "setting": "FIV-p24; [6]", "value": "Negative"}, {"measurement": "IgG antibody induction in vaginal secretions", "setting": "HIV-gp120 antigen [3]; topical, higher dose levels of A(1-7)", "value": "declined"}, {"measurement": "IgG anti-HIV-gp120 antibodies in vaginal secretions", "setting": "HIV-gp120 antigen [3]; topical, lower dose levels of A(1-7)", "value": "also elicited"}, {"measurement": "IgG Anti-HIV gp120", "setting": "HIV-gp120 antigen [3]; [5]", "value": "Negative"}, {"measurement": "IgG Anti-HIV gp120", "setting": "HIV-gp120 antigen [3]; topical Fel-O-Vax FIV + 5.0 A(1-7) in 2% HEC", "value": "Negative"}, {"measurement": "IgG Anti-HIV gp120", "setting": "HIV-gp120 antigen [3]; [7]", "value": "Negative"}, {"measurement": "IgG Anti-HIV gp120", "setting": "HIV-gp120 antigen [3]; [6]", "value": "Negative"}, {"measurement": "SIgA-HIV-gp120 antibodies in oral secretions", "setting": "HIV-gp120 antigen [4]; A(1-7) combined with the intramuscular injections of Fel-O-Vax FIV", "value": "even higher titers"}, {"measurement": "dose response of oral SIgA-anti-HIV-gp120 antibody titers", "setting": "HIV-gp120 antigen [4]; increasing A(1-7) concentrations in the topical vaccine", "value": "initial raise and then decline"}, {"measurement": "SIgA anti-HIV-gp120", "setting": "HIV-gp120 antigen [4]; [7]", "value": "Negative"}, {"measurement": "SIgA anti-HIV-gp120", "setting": "HIV-gp120 antigen [4]; [6]", "value": "Negative"}, {"measurement": "SIgA-anti-HIV-gp120 antibody titers in oral secretions", "setting": "HIV-gp120 antigen [4]; topical application of the FIV antigen and A(1-7), compared with intramuscular", "value": "Comparable levels"}, {"measurement": "SIgA Anti-FIV-p24", "setting": "FIV-p24 antigen; IM Fel-O-Vax FIV + 0.3 mg/kg A(1-7), Week 2, lowest dilution Undilute", "value": "Negative"}, {"measurement": "SIgA Anti-FIV-p24", "setting": "FIV-p24 antigen; IM Fel-O-Vax FIV + 0.3 mg/kg A(1-7), Week 4, lowest dilution Undilute", "value": "Undilute"}, {"measurement": "SIgA Anti-FIV-p24", "setting": "FIV-p24 antigen; IM Fel-O-Vax FIV + 0.3 mg/kg A(1-7), Week 8, lowest dilution Undilute", "value": "Undilute"}, {"measurement": "SIgA Anti-FIV-p24", "setting": "FIV-p24 antigen; topical Fel-O-Vax FIV + 0.1 A(1-7) in 2% HEC, Week 2, lowest dilution Undilute", "value": "Negative"}, {"measurement": "SIgA Anti-FIV-p24", "setting": "FIV-p24 antigen; topical Fel-O-Vax FIV + 0.1 A(1-7) in 2% HEC, Week 4, lowest dilution Undilute", "value": "Negative"}, {"measurement": "SIgA Anti-FIV-p24", "setting": "FIV-p24 antigen; topical Fel-O-Vax FIV + 0.1 A(1-7) in 2% HEC, Week 6, lowest dilution Undilute", "value": "Undilute"}, {"measurement": "SIgA Anti-FIV-p24", "setting": "FIV-p24 antigen; topical Fel-O-Vax FIV + 0.1 A(1-7) in 2% HEC, Week 8, lowest dilution Undilute", "value": "Negative"}, {"measurement": "SIgA Anti-FIV-p24", "setting": "FIV-p24 antigen; topical Fel-O-Vax FIV + 0.2 A(1-7) in 2% HEC, Week 2, lowest dilution Undilute", "value": "Negative"}, {"measurement": "SIgA Anti-FIV-p24", "setting": "FIV-p24 antigen; topical Fel-O-Vax FIV + 0.2 A(1-7) in 2% HEC, Week 4, lowest dilution Undilute", "value": "Negative"}, {"measurement": "SIgA Anti-FIV-p24", "setting": "FIV-p24 antigen; topical Fel-O-Vax FIV + 0.2 A(1-7) in 2% HEC, Week 6, lowest dilution Undilute", "value": "Negative"}, {"measurement": "SIgA Anti-FIV-p24", "setting": "FIV-p24 antigen; topical Fel-O-Vax FIV + 0.2 A(1-7) in 2% HEC, Week 8, lowest dilution Undilute", "value": "Negative"}]}]}
